Laboratory results as given in patent publication US20260217708A1, “FUSED BENZAZEPINE DERIVATIVES FOR USE IN THE TREATMENT OF CANCER AND EPILEPSY” (UCB BIOPHARMA SRL, priority 2023, published 2026).

Key:
[1] = biological target: T1, system Xc^− (Homo sapiens, UniProt Q9UPY5); assay: [^14C]L-Cystine uptake assay; format: cell-based; set-up: endogenous in cells; host or cells: H4 cells; conditions: H4 cells, sodium-free HEPES buffer, 0.5 μM L-[14C]Cystine and 4.5 μM L-Cystine, 1 hour at 37° C.; read-out: pIC50 [^14C] L-Cystine uptake assay (converted)
T1 sequence (Q9UPY5 1-501): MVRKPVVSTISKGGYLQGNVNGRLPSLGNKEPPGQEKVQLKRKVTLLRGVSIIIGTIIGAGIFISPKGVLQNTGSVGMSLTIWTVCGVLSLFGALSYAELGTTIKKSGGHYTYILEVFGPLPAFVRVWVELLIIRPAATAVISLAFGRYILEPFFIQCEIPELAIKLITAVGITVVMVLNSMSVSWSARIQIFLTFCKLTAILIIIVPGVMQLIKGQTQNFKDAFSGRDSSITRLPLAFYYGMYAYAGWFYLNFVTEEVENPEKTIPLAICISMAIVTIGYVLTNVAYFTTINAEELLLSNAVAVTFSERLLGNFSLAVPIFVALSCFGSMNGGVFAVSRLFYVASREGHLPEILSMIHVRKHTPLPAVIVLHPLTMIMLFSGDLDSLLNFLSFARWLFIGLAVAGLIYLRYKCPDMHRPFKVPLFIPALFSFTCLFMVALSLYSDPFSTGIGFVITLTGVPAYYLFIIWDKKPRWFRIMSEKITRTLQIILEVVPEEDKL
T1 sequence (P08195 1-529 partner): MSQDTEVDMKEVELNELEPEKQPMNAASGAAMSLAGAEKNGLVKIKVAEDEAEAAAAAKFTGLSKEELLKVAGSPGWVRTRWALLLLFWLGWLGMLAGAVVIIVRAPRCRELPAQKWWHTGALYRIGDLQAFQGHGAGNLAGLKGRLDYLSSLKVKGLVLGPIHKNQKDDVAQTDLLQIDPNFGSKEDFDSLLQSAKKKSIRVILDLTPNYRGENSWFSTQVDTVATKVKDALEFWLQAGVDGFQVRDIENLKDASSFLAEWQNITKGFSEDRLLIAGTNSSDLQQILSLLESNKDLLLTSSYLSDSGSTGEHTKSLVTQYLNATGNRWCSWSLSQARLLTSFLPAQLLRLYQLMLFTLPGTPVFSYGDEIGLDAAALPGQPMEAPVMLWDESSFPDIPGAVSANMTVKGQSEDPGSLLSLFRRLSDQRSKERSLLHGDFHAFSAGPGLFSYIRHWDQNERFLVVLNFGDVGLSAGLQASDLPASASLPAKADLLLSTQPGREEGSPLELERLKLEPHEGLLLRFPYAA
Method in brief: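 H4 cells at 5×10^4 cells/well in sodium-free HEPES buffer were preincubated 15 min with compounds (1% DMSO). Uptake of 0.5 μM [14C]L-cystine plus 4.5 μM unlabelled L-cystine ran 1 hour at 37° C on scintillating plates. IC50 was set between 1% DMSO and 50 μM Erastin controls and expressed as pIC50.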

[2] = biological target: T1, system Xc^−; assay: Cystine-induced glutamate release assay; format: cell-based; set-up: endogenous in cells; host or cells: H4 cells; conditions: H4 cells, sodium-free HEPES buffer, 50 μM L-Cystine, 2 hours, Amplex Red glutamate readout; read-out: pIC50 Cystine-induced glutamate release assay (converted)
Method in brief: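 H4 cells in sodium-free HEPES buffer (pH 7.4), 2 days after plating; glutamate release induced with 50 μM L-cystine plus compound (1% DMSO), 2 h at 37 °C. Supernatant glutamate measured by Amplex Red fluorescence; IC50/pIC50 derived between 1% DMSO and 50 μM erastin controls.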

Compound	IC50 [1] [µM]	IC50 [2] [µM]
Cc1cc2c(c(F)n1)-c1ccnnc1CC(=O)N2CC(=O)Nc1ccc(C(F)(F)F)cc1 [#110, 2-(3-fluoro-5-methyl-9-oxo-4,8,12,13-tetrazatricyclo[9.4.0.0^2,7]pentadeca-1(11),2,4,6,12,14-hexaen-8-yl)-N-[4-(trifluoromethyl)phenyl]acetamide]	0.0398 to 0.1	0.1 to 0.501
Cc1cc2c(c(F)n1)-c1ccccc1C(C)C(=O)N2CC(=O)Nc1ccc(Cl)c(F)c1 (stereo not drawn) [#402, N-(4-chloro-3-fluoro-phenyl)-2-(1-fluoro-3,7-dimethyl-6-oxo-7H-pyrido[3,4-a][3]benzazepin-5-yl)acetamide]	< 0.0158	< 0.0158
Cc1cc2c(c(C#N)n1)-c1ccccc1CC(=O)N2CC(=O)Nc1ccc(C(F)(F)F)cc1 [#61, 2-(1-cyano-3-methyl-6-oxo-7H-pyrido[4,3-d][3]benzazepin-5-yl)-N-[4-(trifluoromethyl)phenyl]acetamide]	< 0.0158	0.0158 to 0.0398
Cc1cc2c(c(F)n1)-c1cc[nH]c(=O)c1CC(=O)N2CC(=O)Nc1ccc(C(F)(F)F)cc1 [#183, 2-(3-fluoro-5-methyl-9,12-dioxo-4,8,13-triazatricyclo[9.4.0.0^2,7]pentadeca-1(11),2(7),3,5,14-pentaen-8-yl)-N-[4-(trifluoromethyl)phenyl]acetamide]	0.0398 to 0.1	0.1 to 0.501
Cc1cc2c(cc1C)-n1ccnc1CC(=O)N2CC(=O)Nc1ccc(C(F)(F)F)cc1 [#8, 2-(8,9-dimethyl-5-oxo-4H-imidazo[1,2-a][1,5]benzodiazepin-6-yl)-N-[4-(trifluoromethyl)phenyl]acetamide]	0.0398 to 0.1	0.1 to 0.501
Cc1cc2c(c(O)n1)-c1ccccc1CC(=O)N2CC(=O)Nc1ccc(C(F)(F)F)cc1 [#55, 2-(1-hydroxy-3-methyl-6-oxo-7H-pyrido[4,3-d][3]benzazepin-5-yl)-N-[4-(trifluoromethyl)phenyl]acetamide]	0.1 to 0.501	0.0398 to 0.1
Cc1cc2c(c(F)n1)-c1cccnc1CC(=O)N2CC(=O)Nc1ccc(C(F)(F)F)cc1 [#40, 2-(3-fluoro-5-methyl-9-oxo-4,8,12-triaza-tricyclo[9.4.0.0^2,7]pentadeca-1(11),2(7), 3,5,12,14-hexaen-8-yl)-N-[4-(trifluoro-methyl)phenyl]acet-amide]	< 0.0158	0.0158 to 0.0398
CC1C(=O)N(CC(=O)Nc2ccc(Cl)c(F)c2)c2ccn(C)c(=O)c2-c2ccc(F)cc21 (single isomer, unassigned) [#364, N-(4-chloro-3-fluoro-phenyl)-2-[-9-fluoro-2,7-dimethyl-1,6-dioxo-7H-pyrido[4,3-d][3]benzazepin-5-yl]acetamide]	< 0.0158	0.0158 to 0.0398
Cc1cc2c(c(F)n1)-c1cc(F)cnc1CC(=O)N2CC(=O)Nc1ccc(C(F)(F)F)cc1 [#391, 2-(3,14-difluoro-5-methyl-9-oxo-4,8,12-triazatricyclo[9.4.0.0^2,7]pentadeca-1(15),2(7),3,5,11,13-hexaen-8-yl)-N-[4-(trifluoromethyl)phenyl]acetamide]	0.0158 to 0.0398	0.1 to 0.501
CC1C(=O)N(CC(=O)Nc2ccc(Cl)c(F)c2)c2cc(C3CC3)c(=O)n(C)c2-c2ccccc21 (stereo not drawn) [#321, N-(4-chloro-3-fluoro-phenyl)-2-(3-cyclopropyl-1,7-dimethyl-2,6-dioxo-7H-pyrido[3,2-d][3]benzazepin-5-yl)acetamide]	0.0158 to 0.0398	0.0158 to 0.0398
Cc1cc2c(c(F)n1)-c1cccnc1[C@@H](C)C(=O)N2CC(=O)Nc1ccc(Br)cc1 [#145, N-(4-bromophenyl)-2-[(10R)-3-fluoro-5,10-dimethyl-9-oxo-4,8,12-triazatricyclo[9.4.0.0^2,7]pentadeca-1(11),2(7),3,5,12,14-hexaen-8-yl]acetamide]	< 0.0158	< 0.0158
Cc1cc2c(c(F)n1)-c1cccnc1[C@@H](C)C(=O)N2CC(=O)Nc1ccc2c(c1)CC(F)(F)C2 [#237, N-(2,2-difluoroindan-5-yl)-2-[(10R)-3-fluoro-5,10-dimethyl-9-oxo-4,8,12-triazatricyclo[9.4.0.0^2,7]pentadeca-1(15),2,4,6,11,13-hexaen-8-yl]acetamide]	0.0398 to 0.1	0.0158 to 0.0398
Cc1cc2c(c(F)n1)-c1cccnc1[C@@H](C)C(=O)N2CC(=O)Nc1ccc(Br)c(F)c1 [#158, N-(4-bromo-3-fluoro-phenyl)-2-[(10R)-3-fluoro-5,10-dimethyl-9-oxo-4,8,12-triazatricyclo[9.4.0.0^2,7]pentadeca-1(11),2(7),3,5,12,14-hexaen-8-yl]acetamide]	< 0.0158	0.0158 to 0.0398
COc1cc(F)c2c(c1)N(CC(=O)Nc1ccc(Cl)c(F)c1)C(=O)C(C)c1ncccc1-2 (single isomer, unassigned) [#316, N-(4-chloro-3-fluoro-phenyl)-2-[11-fluoro-9-methoxy-5-methyl-6-oxo-5H-pyrido[2,3-d][1]benzazepin-7-yl]acetamide]	0.0158 to 0.0398	0.0158 to 0.0398
Cc1cc2c(c(F)n1)-c1cccnc1[C@@H](C)C(=O)N2CC(=O)Nc1ccc(F)c(F)c1 [#140, N-(3,4-difluorophenyl)-2-[(10R)-3-fluoro-5,10-dimethyl-9-oxo-4,8,12-triazatricyclo[9.4.0.0^2,7]pentadeca-1(11),2(7),3,5,12,14-hexaen-8-yl]acetamide]	0.0158 to 0.0398	0.0158 to 0.0398
Cc1cc2c(c(Cl)n1)-c1cccnc1C(C)C(=O)N2CC(=O)Nc1cc(F)c(Cl)cc1F (single isomer, unassigned) [#226, Enantiomer (10S) or (10R) of N-(4-chloro-2,5-difluoro-phenyl)-2-[3-chloro-5,10-dimethyl-9-oxo-4,8,12-triazatricyclo[9.4.0.0^2,7]pentadeca-1(11),2(7),3,5,12,14-hexaen-8-yl]acetamide]	0.0158 to 0.0398	< 0.0158
COc1nccc2c1-c1cccnc1C(C)C(=O)N2CC(=O)Nc1ccc(Cl)c(F)c1 (single isomer, unassigned) [#297, N-(4-chloro-3-fluoro-phenyl)-2-[3-methoxy-10-methyl-9-oxo-4,8,12-triazatricyclo[9.4.0.0^2,7]pentadeca-1(15),2(7),3,5,11,13-hexaen-8-yl]acetamide]	< 0.0158	< 0.0158
COCCOc1nc(C)cc2c1-c1cccnc1C(C)C(=O)N2CC(=O)Nc1ccc(C(F)(F)F)cc1 (single isomer, unassigned) [#162, 2-[3-(2-methoxyethoxy)-5,10-dimethyl-9-oxo-4,8,12-triazatricyclo[9.4.0.0^2,7]pentadeca-1(11),2(7),3,5,12,14-hexaen-8-yl]-N-[4-(trifluoromethyl)phenyl]acetamide]	0.0158 to 0.0398	0.0158 to 0.0398
CC(=O)OCc1cc2c(cn1)-c1ccccc1CC(=O)N2CC(=O)Nc1ccc(C(F)(F)F)cc1 [#59, [6-oxo-5-[2-oxo-2-[4-(trifluoromethyl)anilino]ethyl]-7H-pyrido[4,3-d][3]benzazepin-3-yl]methyl acetate]	0.1 to 0.501	0.1 to 0.501
Cc1cc2c(c(C)n1)-c1cccc(F)c1CC(=O)N2CC(=O)Nc1ccc(C(F)(F)F)cc1 [#64, 2-(8-fluoro-1,3-dimeth-yl-6-oxo-7H-pyrido [4,3-d][3]benzazepin-5-yl)-N-[4-(trifluorometh-yl)phenyl]acetamide]	< 0.0158	0.0158 to 0.0398
Cc1cc2c(cn1)-c1ccc(F)cc1C(C)C(=O)N2CC(=O)Nc1ccc(C(F)F)cc1 (single isomer, unassigned) [#323, N-[4-(difluoromethyl)phenyl]-2-[9-fluoro-3,7-dimethyl-6-oxo-7H-pyrido[3,4-a][3]benzazepin-5-yl]acetamide]	< 0.0158	< 0.0158
